PubChem BioAssay (NCI)
Where “and” joins values, the source holds several entries; their conditions need not be identical. Identical values can stand only once.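 1) Cells in 96-well plates. 2) Compound, 48 h, 5 concentrations. 3) Linear interpolation between surrounding doses. 4) Unreached endpoint = highest concentration. GI50 = concentration required for 50% inhibition of growth. Definition used: TGI = concentration required for complete inhibition of growth.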

What was measured:
Assay in all cases: inhibition of tumour cell growth, NCI panel, 48 h
HOP-62 NSCLC = tested on: HOP-62 NSCLC
MDA-N = tested on: MDA-N
OVCAR-5 ovarian = tested on: OVCAR-5 ovarian
NCI-H226 lung = tested on: NCI-H226 lung
RXF 393 renal = tested on: RXF 393 renal
T-47D breast = tested on: T-47D breast
SN12C renal = tested on: SN12C renal
BT-549 breast = tested on: BT-549 breast
SK-OV-3 ovarian = tested on: SK-OV-3 ovarian
786-0 renal = tested on: 786-0 renal
HOP-92 NSCLC = tested on: HOP-92 NSCLC
IGROV1 ovarian = tested on: IGROV1 ovarian
MDA-MB-435 = tested on: MDA-MB-435
HCT-116 colon = tested on: HCT-116 colon
KM12 colon = tested on: KM12 colon
CCRF-CEM leukemia = tested on: CCRF-CEM leukemia
DMS 114 small cell lung = tested on: DMS 114 small cell lung
DMS 273 small cell lung = tested on: DMS 273 small cell lung
SNB-78 CNS = tested on: SNB-78 CNS

| SMILES | TGI (HOP-62 NSCLC) | TGI (MDA-N) [µM] | TGI (OVCAR-5 ovarian) [µM] | TGI (NCI-H226 lung) | TGI (RXF 393 renal) [µM] | TGI (T-47D breast) [µM] | TGI (SN12C renal) [µM] | TGI (BT-549 breast) [µM] | TGI (SK-OV-3 ovarian) [µM] | TGI (786-0 renal) [µM] | TGI (HOP-92 NSCLC) | TGI (IGROV1 ovarian) [µM] | TGI (MDA-MB-435) [µM] | TGI (HCT-116 colon) [µM] | TGI (KM12 colon) [µM] | TGI (CCRF-CEM leukemia) [µM] | TGI (DMS 114 small cell lung) | TGI (DMS 273 small cell lung) [µM] | TGI (SNB-78 CNS) [µM] | GI50 (SNB-78 CNS) |
| --- | --- | --- | --- | --- | --- | --- | --- | --- | --- | --- | --- | --- | --- | --- | --- | --- | --- | --- | --- | --- |
| Cc1cc2sc(C)[n+](CCCOS(=O)(=O)[O-])c2cc1C | > 100 µM | > 100 | > 100 | > 100 µM | > 100 | > 100 | > 100 | > 100 | > 100 | > 100 | > 100 µM | > 100 | > 100 | > 100 | > 100 |  |  |  |  |  |
| CC(C)(C)C(=O)CP(=O)(O)O | > 100 µM | > 100 | > 100 | > 100 µM | > 100 | > 100 | > 100 | > 100 | > 100 | > 100 | > 100 µM | > 100 | > 100 | > 100 | > 100 | > 100 |  |  |  |  |
| N=[N+]=CC(=O)CCC(NC(=O)C(CCC(=O)C=[N+]=N)NC(=O)CCC(N)C(=O)O)C(=O)O (stereo not drawn) | > 100 µM |  | > 100 | > 100 µM | > 100 |  | > 100 |  | > 100 |  | > 100 µM | > 100 |  | > 100 | > 31.6 | > 100 | > 100 µM | > 100 | > 100 |  |
| Nc1c(C(=O)Nc2ccc(C3=NCCN3)cc2)cccc1C(=O)Nc1ccc(C2=NCCN2)cc1 |  |  | > 100 | > 100 µM | > 100 |  | > 100 |  | > 100 |  | > 100 µM | > 100 |  | > 100 | > 100 | > 100 | > 100 µM | > 100 | > 100 |  |
| C[n+]1ccc(Nc2ccc(NC(=O)c3ccc(Nc4cc[n+](C)c5ccc([N+](=O)[O-])cc45)cc3[N+](=O)[O-])cc2)cc1 | 84.9 µM and > 100 µM |  | > 100 | 99.7 µM and > 100 µM | > 100 |  | > 100 |  | > 100 | 77.4 | 81.7 µM and > 77.1 µM | > 100 |  | > 100 | > 100 | > 100 | 27.2 µM and 41.5 µM | > 100 | > 100 | 42.3 µM and > 100 µM |
| Cc1ccc(N=Nc2ccc(N)cc2C)c(S(N)(=O)=O)c1 | > 100 µM | > 100 | > 100 | > 100 µM | > 100 | > 100 | > 100 | > 100 | > 100 | > 100 | 99.5 µM | > 100 |  | > 100 | > 100 | > 100 |  |  |  |  |
| COC(=O)c1cc2cc3c(c(O)c2c(=O)o1)O[C@@]1(Oc2c(O)c4c(c(O)c2[C@H]1OC1CC(OC)C(O)C(C)O1)C(=O)C=C(OC)C4=O)[C@H](O)C3 (stereo partly drawn) | 5.37 µM | > 100 | > 24.3 | 17.1 µM | 3.25 | 7.2 | 12.1 | 4.93 | 17 |  | > 23.6 µM | 7.17 | 7.47 | > 20.8 | 9.51 |  |  |  |  |  |
| C/C=C(\C)C(=O)OC1C(C)=C2C(C1OC(=O)CCCC)C(C)(OC(C)=O)CC(OC(=O)CCCC)C1(O)C2OC(=O)C1(C)O (stereo not drawn) | 3.67 µM | > 100 | > 93.3 | > 25.8 µM | > 100 | > 100 | > 100 | > 100 | > 100 | > 60.1 | > 100 µM | > 100 | > 100 | 2.09 | > 42.5 | > 100 |  |  |  |  |
| C/C(=N\NC(=S)N1CCN(C)CC1)c1nc2ncccc2[nH]1 | > 100 µM |  | > 100 | > 100 µM |  | > 100 | > 100 | > 100 | > 100 | > 100 | > 100 µM | > 100 | > 100 |  | > 100 | > 100 |  |  |  |  |
| CN(Cc1cccc2ccccc12)Cc1cccc2ccccc12 | > 100 µM |  | > 100 | 86.4 µM | > 100 | 72.2 | > 100 | > 100 | > 100 | > 100 |  | > 100 | > 100 | 55.8 | > 100 | 34 |  |  |  |  |
| O=C(O)NCC1CCCCC1 (tested in a mixture with another compound) | 33.8 µM | 47.7 | > 100 | 41.2 µM | 45.9 |  | 28.1 | 72.6 |  | 77.3 | 24.4 µM | 23.3 | 58.1 | 88.7 | 29.7 | > 100 |  |  |  |  |
| CC(C)(C)NCC(O)c1ccc(O)c(CO)n1 (stereo not drawn) | > 100 µM | > 100 | > 100 | > 100 µM | > 100 | > 100 | > 100 | > 100 | > 100 | > 100 | > 100 µM | > 100 | > 100 | > 100 | > 100 |  |  |  |  |  |
| OC(c1cc(-c2ccc(Cl)cc2)nc2ccccc12)C1CCCCN1 (stereo not drawn) | 3.13 µM | 3.7 | 4.94 | 39 µM | 0.315 | 2.96 | 3.54 | 16 | 5.5 | 3.92 | 12.2 µM |  | 4.35 | 3.74 | 5.42 | 2.52 |  |  |  |  |
| C1CSC(=[N+]2CC[N+](=C3SCCS3)CC2)S1 | > 100 µM |  | > 100 |  | > 100 |  | > 100 |  | > 100 | > 100 | > 100 µM | > 100 |  | > 100 | > 100 | > 100 | > 100 µM | > 100 | > 100 |  |
| O=C(NC1C=Nc2ccc([N+](=O)[O-])cc2NC1=O)c1cc(Cl)cc([N+](=O)[O-])c1 (stereo not drawn) | > 100 µM |  | > 100 | > 100 µM | > 100 |  | > 100 |  | > 100 |  | > 100 µM | > 100 |  | > 100 | > 100 | > 100 | 84.2 µM | > 100 | > 100 |  |
| Oc1ccc(Cc2nccc3cc(O)c(O)cc23)cc1O | > 100 µM | > 100 | > 100 | > 100 µM | > 100 | > 100 | > 100 | > 100 | > 100 | > 100 | > 100 µM | > 100 | > 100 | 35.1 | > 100 | 60.3 |  |  |  |  |
| C[n+]1c2ccccc2c(NC(CS)C(=O)O)c2ccccc21 (stereo not drawn) | 73.5 µM |  | > 100 | > 100 µM | 60.7 |  | > 100 |  | 61 | > 100 | 60.2 µM | > 100 |  | 30.7 | 64.9 |  | 95.8 µM | 89.9 | > 100 |  |
